Laboratory results as given in ChEMBL document CHEMBL3526058, “Investigating the enteroenteric recirculation of apixaban, a factor Xa inhibitor: administration of activated charcoal to bile duct-cannulated rats and dogs receiving an intravenous dose and use of drug transporter knockout rats” (Drug Metab Dispos, 2013).

Key:
[1] = Apparent oral clearance in beagle dog at 5 mg/kg, po followed by activated charcoal administration 0.25 hrs post compound dosing; assay type: ADME, organism-based, Canis lupus familiaris; parameters: dose 5 mg/kg, route oral; conditions: in vivo
[2] = Cmax in P-gp-knockout Sprague-Dawley rat at 4 mg/kg, po; assay type: ADME, organism-based; parameters: dose 4 mg/kg, route oral; conditions: in vivo
[3] = AUC (0 to 24 hrs) in beagle dog at 5 mg/kg, po followed by activated charcoal administration 3 hrs post compound dosing; assay type: ADME, organism-based, Canis lupus familiaris; parameters: time < 24 hr, dose 5 mg/kg, route oral; conditions: plasma
[4] = Apparent oral clearance in beagle dog at 5 mg/kg, po; assay type: ADME, organism-based, Canis lupus familiaris; parameters: dose 5 mg/kg, route oral; conditions: in vivo
[5] = Oral steady-state volume of distribution in Sprague-Dawley rat at 4 mg/kg administered 1 hr post GF-120918 treatment; assay type: ADME, organism-based; parameters: dose 4 mg/kg; conditions: in vivo, with GF-120918, read-out: Vss/F
[6] = Oral bioavailability in beagle dog at 5 mg/kg; assay type: ADME, organism-based, Canis lupus familiaris; conditions: in vivo
[7] = Oral steady-state volume of distribution in wild-type Sprague-Dawley rat at 4 mg/kg; assay type: ADME, organism-based; parameters: dose 4 mg/kg; conditions: in vivo, read-out: Vss/F
[8] = Mean residence time in beagle dog at 5 mg/kg, po followed by activated charcoal administration 3 hrs post compound dosing; assay type: ADME, organism-based, Canis lupus familiaris; parameters: dose 5 mg/kg, route oral; conditions: in vivo
[9] = Half life in beagle dog at 5 mg/kg, po followed by activated charcoal administration 0.25 hrs post compound dosing; assay type: ADME, organism-based, Canis lupus familiaris; parameters: dose 5 mg/kg, route oral; conditions: in vivo
Homo sapiens [10] = assay: Volume of distribution in human administered bid orally; assay type: ADME, organism-based; conditions: in vivo, po
[11] = Half life in P-gp-knockout Sprague-Dawley rat at 4 mg/kg, po; assay type: ADME, organism-based; parameters: dose 4 mg/kg, route oral; conditions: in vivo
Homo sapiens [12] = species: Homo sapiens; assay: Plasma clearance in human relative to hepatic blood flow; assay type: ADME, organism-based; conditions: in vivo
[13] = Apparent oral clearance in Sprague-Dawley rat at 4 mg/kg, po administered 1 hr post GF-120918 treatment; assay type: ADME, organism-based; parameters: dose 4 mg/kg, route oral; conditions: in vivo, with GF-120918
[14] = Half life in beagle dog at 5 mg/kg, po; assay type: ADME, organism-based, Canis lupus familiaris; parameters: dose 5 mg/kg, route oral; conditions: in vivo
[15] = AUC (0 to infinity) in BCRP-knockout Sprague-Dawley rat at 4 mg/kg, po; assay type: ADME, organism-based; parameters: time infinity, dose 4 mg/kg, route oral; conditions: plasma
[16] = AUC (0 to 24 hrs) in beagle dog at 5 mg/kg, po; assay type: ADME, organism-based, Canis lupus familiaris; parameters: time < 24 hr, dose 5 mg/kg, route oral; conditions: plasma
[17] = Mean residence time in beagle dog at 5 mg/kg, po followed by activated charcoal administration 0.25 hrs post compound dosing; assay type: ADME, organism-based, Canis lupus familiaris; parameters: dose 5 mg/kg, route oral; conditions: in vivo
[18] = Oral bioavailability in beagle dog at 5 mg/kg followed by activated charcoal administration 0.25 hrs post compound dosing; assay type: ADME, organism-based, Canis lupus familiaris; conditions: in vivo
[19] = Cmax in beagle dog at 5 mg/kg, po followed by activated charcoal administration 1 hr post compound dosing; assay type: ADME, organism-based, Canis lupus familiaris; parameters: dose 5 mg/kg, route oral; conditions: in vivo
[20] = Apparent oral clearance in P-gp-knockout Sprague-Dawley rat at 4 mg/kg, po; assay type: ADME, organism-based; parameters: dose 4 mg/kg, route oral; conditions: in vivo
[21] = Oral bioavailability in wild-type Sprague-Dawley rat at 4 mg/kg; assay type: ADME, organism-based; conditions: in vivo
[22] = Half life in human administered bid orally; assay type: ADME, organism-based; conditions: in vivo, po
[23] = Half life in wild-type Sprague-Dawley rat at 4 mg/kg, po; assay type: ADME, organism-based; parameters: dose 4 mg/kg, route oral; conditions: in vivo
[24] = AUC (0 to 24 hrs) in beagle dog at 5 mg/kg, po followed by activated charcoal administration 0.25 hrs post compound dosing; assay type: ADME, organism-based, Canis lupus familiaris; parameters: time < 24 hr, dose 5 mg/kg, route oral; conditions: plasma
[25] = Apparent oral clearance in beagle dog at 5 mg/kg, po followed by activated charcoal administration 1 hr post compound dosing; assay type: ADME, organism-based, Canis lupus familiaris; parameters: dose 5 mg/kg, route oral; conditions: in vivo
[26] = Plasma concentration in beagle dog at 5 mg/kg, po followed by activated charcoal administration 0.25 hrs post compound dosing measured at 8 hrs; assay type: ADME, organism-based, Canis lupus familiaris; parameters: dose 5 mg/kg, route oral
[27] = Cmax in beagle dog at 5 mg/kg, po; assay type: ADME, organism-based, Canis lupus familiaris; parameters: dose 5 mg/kg, route oral; conditions: in vivo
[28] = Plasma concentration in beagle dog at 5 mg/kg, po at 8 hrs; assay type: ADME, organism-based, Canis lupus familiaris; parameters: dose 5 mg/kg, route oral
[29] = Plasma concentration in beagle dog at 5 mg/kg, po followed by activated charcoal administration 3 hrs post compound dosing measured at 8 hrs; assay type: ADME, organism-based, Canis lupus familiaris; parameters: dose 5 mg/kg, route oral
[30] = Oral bioavailability in P-gp-knockout Sprague-Dawley rat at 4 mg/kg; assay type: ADME, organism-based; conditions: in vivo
[31] = Oral steady-state volume of distribution in P-gp-knockout Sprague-Dawley rat at 4 mg/kg; assay type: ADME, organism-based; parameters: dose 4 mg/kg; conditions: in vivo, read-out: Vss/F
[32] = Cmax in BCRP-knockout Sprague-Dawley rat at 4 mg/kg, po; assay type: ADME, organism-based; parameters: dose 4 mg/kg, route oral; conditions: in vivo
[33] = Mean residence time in beagle dog at 5 mg/kg, po followed by activated charcoal administration 1 hr post compound dosing; assay type: ADME, organism-based, Canis lupus familiaris; parameters: dose 5 mg/kg, route oral; conditions: in vivo

COc1ccc(-n2nc(C(N)=O)c3c2C(=O)N(c2ccc(N4CCCCC4=O)cc2)CC3)cc1
CL/F [1]: 1.37 mL/min/kg | Cmax [2]: 940 ng/mL | AUC(0-t) at 24 h [3]: 49200 ng·h/mL | CL/F [4]: 1 mL/min/kg | Vd/F [5]: 0.7 L/kg | bioavailability [6]: 93% | Vd/F [7]: 5.8 L/kg | MRT [8]: 5.3 h | half-life [9]: 4.2 h | Vd (Homo sapiens [10]): 0.3 L/kg | half-life [11]: 3.8 h | CL (Homo sapiens [12]): < 5% | CL/F [13]: 5 mL/min/kg | half-life [14]: 5.7 h | AUC(0-inf) [15]: 5710 ng·h/mL | AUC(0-t) at 24 h [16]: 78600 ng·h/mL | MRT [17]: 6.4 h | bioavailability [18]: 92% | Cmax [19]: 8990 ng/mL | CL/F [20]: 10 mL/min/kg | bioavailability [21]: 49% | half-life [22]: 12 h | half-life [23]: 3.3 h | AUC(0-t) at 24 h [24]: 59500 ng·h/mL | CL/F [25]: 1.28 mL/min/kg | concentration at 8 h [26]: 2820 ng/mL | Cmax [27]: 9350 ng/mL | concentration at 8 h [28]: 5230 ng/mL | concentration at 8 h [29]: 2190 ng/mL | bioavailability [30]: 71% | Vd/F [31]: 2.4 L/kg | Cmax [32]: 1920 ng/mL | MRT [33]: 5.9 h
